Assay results from patent US20240390434A1, “PROBIOTIC ENHANCERS AND USES THEREOF” (Blis Technologies Limited, priority 2021, published 2024).

Experiments:
Format in all cases: cell-based
S. aureus A222 = experiment: Deferred antagonism assay, producer S. salivarius M18; conditions: Staphylococcus aureus, A222, M18, read-out: Size of zone inhibition normalised to control, S. aureus A222
Method: (§1) 1-2 producer strain colonies were transferred from a stock plate into 900 μL of suspension solution using a fresh cotton swab. Following this, suspensions were vortexed, and a sample was inoculated onto solid culture media using a fresh cotton swab. The inoculation was a streak that runs diametrically across the agar plate in a 1.5 cm wide strip. The plate was then incubated. Following incubation all visible colonies were removed by swabbing them from the agar surface. The plates were then treated with chloroform by dispensing 2 ml of chloroform onto 4 cm×4 cm piece of cloth and sealing the inverted agar plate on top for 30 minutes. The plates were then air dried for 30 minutes following chloroforming. 1-2 indicator strain colonies were then transferred from a stock plate into complementary suspension solution. The suspensions were then vortexed, and a sample was inoculated onto the same agar surface. These samples were streaked in a perpendicular direction to the initial producer streak.
(§2) Each indicator streak was prepared with fresh a suspension containing cells from a corresponding stock plate containing the indicator strain of interest. Indicator strains suspension samples were transferred using a fresh cotton swab. Results were measured by qualitatively reviewing the subsequent (if any) sizes of the zones of inhibition (ZOI) of indicator strain colony growth. A positive result is when there is a distinctive reduction or complete inhibition of indicator colony growth on the culture medium.
(§3) CABCa agar plates containing various concentrations of saccharide were prepared according to the methods described in Method 1. Producer strains were transferred from stock agar plates into 900 μL THB using a fresh cotton swab. A plastic spread plater was cut to approximately 1.2 cm width and then dipped into ethanol and left to air dry to ensure sterility. A 100 μL sample of the producer strain suspension was then dispensed onto the agar surface in a straight line running diametrically across the agar surface in (approximately) 20 μL spots. The spots were spaced approximately 1.5 cm apart from each other. The plastic spreader was then used to evenly distribute the spots across the agar surface in a 1.5 cm wide strip. This step was taken to ensure an even producer streak was inoculated onto the agar surface and provided an approximate measure of the initial inoculum concentration. Separate plastic spreaders were used for samples containing different producer strains. The samples were left to soak into the agar surface until there was no visible liquid remaining on the agar surface (approximately 20 minutes). Following producer streak preparations, the deferred antagonism assay protocol was followed as per Method 2. Results were recorded by measuring the size of the zone of inhibition (ZOI) in mm.
(§4) A dose response assay was carried out according to method 3 above, except a 1.2 cm streak was used. For the individual saccharide testing the pH of the producer streak was adjusted after the growth of producer to change the acidic conditions.
(§5) A deferred antagonism assay was conducted using K12 or M18 raw ingredient suspended in Todd Hewitt broth (THB). This was spread as a 1.2 cm streak containing approximately 1-2×10^6 cfu down the middle of a CABCa control or CABCa galactose supplemented test plate. After 18 hrs growth at 37° C. with 5% CO2, bacterial growth was removed, and the pH of the agar in the initial streak was measured and adjusted to a pH of 6.5-7.5 using 0.5M sodium carbonate pH11 before sterilizing the agar surface using chloroform vapor. Bacterial test strains were suspended in i-THB before being swabbed across the plates perpendicular to the initial streak. Plates were incubated for a further 18 hrs incubation at 37° C. with 5% CO2 before measuring (mm) any zones of inhibition for each test strain, […]

S. constellatus T29 = experiment: as above; conditions: Streptococcus constellatus, T29, M18, read-out: Size of zone inhibition normalised to control, S. constellatus T29
Method: as §1, §2, §3, §4, §5

S. mutans OMZ175 = experiment: as above; conditions: Streptococcus mutans, OMZ175, M18, read-out: Size of zone inhibition normalised to control, S. mutans OMZ175
Method: as §1, §2, §3, §4, §5

S. pneumoniae D39 = experiment: as above; conditions: Streptococcus pneumoniae, D39, M18, read-out: Size of zone inhibition normalised to control, S. pneumoniae D39
Method: as §1, §2, §3, §4, §5

[1] = system: S. saprophyticus ATCC 15305; experiment: as above; conditions: Staphylococcus saprophyticus, ATCC15305, M18, read-out: Size of zone inhibition normalised to control, S. saprophyticus ATCC 15305
Method: as §1, §2, §3, §4, §5

L. lactis T-21 = experiment: Dose response deferred antagonism assay, producer K12; conditions: relative to the concentration of galactose
Method: as §1, §2, §3
(§6) The results presented in FIG. 1 and FIG. 2 illustrate the change in ear, nose, and throat (ENT) microorganism indicator strain zone of inhibition sizes. When K12 was cultured in the presence of various concentrations of galactose the ZOI sizes for several of the ENTR indicator strains increased markedly from the control condition (FIG. 1). M. catarrhalis TW1 and TW2 display similar changes in the ZOI sizes across the various concentrations of galactose. The change in TW1 ZOI size peaks at 1.5% galactose(w/v) (12 mm) then decreases at 2.0% galactose (w/v), whereas the change of TW2 ZOI size peaks at 2.0% galactose (w/v) (11 mm). The change in L. lactis T-21 ZOI sizes trend upwards relative to the concentration of galactose present in the culture medium.

M. catarrhalis TW2 = experiment: as above; conditions: 2.0% galactose (w/v), peak
Method: as §1, §2, §3, §6

S. pyogenes M76 = experiment: as above; conditions: between 1.5% and 2.0% galactose
Method: as §1, §2, §3, §6

In the case of `O=C[C@H](O)[C@@H](O)[C@@H](O)[C@H](O)CO` [Galactose, D-galactose], the zone of inhibition at 0.5 % strength (S. aureus A222; Galactose 0.5% w/w) is reported as 10 mm, the zone of inhibition at 1.25 % strength (S. aureus A222; Galactose 1.25% w/w) is reported as 6 mm and the zone of inhibition at 1.7 % strength (S. aureus A222; Galactose 1.7% w/w) is reported as 0 mm. For the same compound, the zone of inhibition at 2.5 % strength (S. aureus A222; Galactose 2.5% w/w) was 0 mm, the zone of inhibition at 3.3 % strength (S. aureus A222; Galactose 3.3% w/w) was 6 mm and the zone of inhibition at 5 % strength (S. aureus A222; Galactose 5% w/w) was 0 mm. For the same compound, the zone of inhibition at 0.5 % strength (S. constellatus T29; Galactose 0.5% w/w) was 0 mm, the zone of inhibition at 1.25 % strength (S. constellatus T29; Galactose 1.25% w/w) was 8 mm and the zone of inhibition at 1.7 % strength (S. constellatus T29; Galactose 1.7% w/w) was 0 mm. For the same compound, the zone of inhibition at 2.5 % strength (S. constellatus T29; Galactose 2.5% w/w) was 16 mm, the zone of inhibition at 3.3 % strength (S. constellatus T29; Galactose 3.3% w/w) was 22 mm and the zone of inhibition at 5 % strength (S. constellatus T29; Galactose 5% w/w) was 17 mm. For the same compound, the zone of inhibition at 0.5 % strength (S. mutans OMZ175; Galactose 0.5% w/w) was 16 mm, the zone of inhibition at 1.25 % strength (S. mutans OMZ175; Galactose 1.25% w/w) was 0 mm and the zone of inhibition at 1.7 % strength (S. mutans OMZ175; Galactose 1.7% w/w) was 0 mm. It also gave a zone of inhibition at 2.5 % strength (S. mutans OMZ175; Galactose 2.5% w/w) of 0 mm, a zone of inhibition at 3.3 % strength (S. mutans OMZ175; Galactose 3.3% w/w) of 6 mm and a zone of inhibition at 5 % strength (S. mutans OMZ175; Galactose 5% w/w) of 0 mm. It also gave a zone of inhibition at 0.5 % strength (S. pneumoniae D39; Galactose 0.5% w/w) of 8 mm, a zone of inhibition at 1.25 % strength (S. pneumoniae D39; Galactose 1.25% w/w) of 5 mm and a zone of inhibition at 1.7 % strength (S. pneumoniae D39; Galactose 1.7% w/w) of 0 mm. The zone of inhibition at 2.5 % strength (S. pneumoniae D39; Galactose 2.5% w/w) was 6 mm, the zone of inhibition at 3.3 % strength (S. pneumoniae D39; Galactose 3.3% w/w) was 2 mm and the zone of inhibition at 5 % strength (S. pneumoniae D39; Galactose 5% w/w) was 0 mm. It also gave a zone of inhibition at 0.5 % strength ([1]; Galactose 0.5% w/w) of 5 mm, a zone of inhibition at 1.25 % strength ([1]; Galactose 1.25% w/w) of 0 mm and a zone of inhibition at 1.7 % strength ([1]; Galactose 1.7% w/w) of 0 mm. The zone of inhibition at 2.5 % strength ([1]; Galactose 2.5% w/w) was 0 mm, the zone of inhibition at 3.3 % strength ([1]; Galactose 3.3% w/w) was 0 mm and the zone of inhibition at 5 % strength ([1]; Galactose 5% w/w) was 0 mm. The “change in L. lactis T-21 ZOI sizes” value (L. lactis T-21) was “trend upwards”, the “change of TW2 ZOI size” value (M. catarrhalis TW2) was 11 mm and the “change in M76 ZOI size” value (S. pyogenes M76) was 11 mm.
